Test results published in US11541050B2, “Pyrimidine derivatives for the treatment of viral infections” (JANSSEN SCIENCES IRELAND UC, priority 2011, dated 2023).

Biological target: T1, human TLR7 (wild type sequence) (Homo sapiens, UniProt Q9NYK1)
T1 construct: expressed in transfected cells; host or cells: HEK293
T1 sequence (Q9NYK1 27-1049): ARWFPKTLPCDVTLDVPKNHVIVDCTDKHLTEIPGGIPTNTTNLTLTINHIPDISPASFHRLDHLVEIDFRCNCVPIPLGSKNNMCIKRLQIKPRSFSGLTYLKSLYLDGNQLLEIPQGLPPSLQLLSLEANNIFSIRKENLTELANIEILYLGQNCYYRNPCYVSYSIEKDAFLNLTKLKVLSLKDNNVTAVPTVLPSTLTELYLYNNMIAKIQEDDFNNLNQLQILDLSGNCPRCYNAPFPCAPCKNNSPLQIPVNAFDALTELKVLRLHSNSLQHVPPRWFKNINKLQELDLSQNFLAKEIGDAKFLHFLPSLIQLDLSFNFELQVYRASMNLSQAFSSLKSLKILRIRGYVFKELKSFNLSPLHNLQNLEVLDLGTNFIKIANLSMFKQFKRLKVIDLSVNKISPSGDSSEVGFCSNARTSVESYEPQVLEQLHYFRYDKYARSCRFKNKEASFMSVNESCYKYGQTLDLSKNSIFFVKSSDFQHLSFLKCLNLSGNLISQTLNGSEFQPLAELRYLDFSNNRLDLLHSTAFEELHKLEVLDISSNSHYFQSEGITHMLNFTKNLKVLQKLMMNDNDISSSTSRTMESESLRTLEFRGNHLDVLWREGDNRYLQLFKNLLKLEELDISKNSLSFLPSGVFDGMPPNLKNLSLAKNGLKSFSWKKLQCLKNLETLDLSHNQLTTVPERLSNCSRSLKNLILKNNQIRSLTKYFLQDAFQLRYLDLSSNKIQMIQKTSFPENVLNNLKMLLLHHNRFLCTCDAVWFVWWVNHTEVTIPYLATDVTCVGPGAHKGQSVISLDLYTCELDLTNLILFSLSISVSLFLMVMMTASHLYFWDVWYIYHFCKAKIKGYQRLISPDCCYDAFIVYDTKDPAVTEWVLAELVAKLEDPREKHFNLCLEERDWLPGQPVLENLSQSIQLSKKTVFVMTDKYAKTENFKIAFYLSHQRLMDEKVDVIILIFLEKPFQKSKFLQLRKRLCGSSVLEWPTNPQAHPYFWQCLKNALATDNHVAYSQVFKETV
Assay: TLR7 cellular NFκB-luc reporter assay, wild type TLR7
Assay type: cell-based
Parameters: unit not given here
Settings: lowest effective concentration, wild type TLR7
Outline: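 HEK293 cells were transiently transfected for 48 h with a CMV-driven wild-type or LRR2-deletion TLR7 or TLR8 plasmid plus an NFκB-luc reporter. They were then exposed to compound for 6 h at 37 °C and luciferase was read. LEC is the concentration giving an effect at least twofold above the assay SD, from quadruplicate dose-response curves.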

Row | SMILES | TLR7-wt_LEC
1 | CCCCNc1nc(N)ncc1OCCN1CCOCC1 [Compound 269] | 24.550
2 | CCC[C@@H](CCO)Nc1nc(N)ncc1OCc1cccc(C(N)=O)n1 [Compound 270] | 0.109
3 | CCC[C@@H](CCO)Nc1nc(N)ncc1OCc1cccnc1 [Compound 271] | 0.261
4 | CCCC[C@@H](CCO)Nc1nc(N)ncc1OCc1cccnc1 [Compound 272] | 0.207
5 | CCCC[C@@H](CO)Nc1nc(N)ncc1OCc1cccnc1 [Compound 274] | 1.140
6 | CCCCNc1nc(N)ncc1OCCOCC(F)(F)F [Compound 276] | 3.260
7 | CCC[C@@H](CO)Nc1nc(N)ncc1OCc1cccnn1 [Compound 277] | 1.180
8 | CCCC[C@@H](CO)Nc1nc(N)ncc1OCc1cccnn1 [Compound 278] | 0.880
9 | CCC[C@@H](CCO)Nc1nc(N)ncc1OCc1cccnn1 [Compound 279] | 0.724
10 | CCCC[C@@H](CCO)Nc1nc(N)ncc1OCc1cccnn1 [Compound 280] | 0.392
11 | CCCCNc1nc(N)ncc1OCc1ccc(CO)cc1 [Compound 281] | 0.472
12 | CCCC[C@@H](CCO)Nc1nc(N)ncc1OCc1cccc(C(N)=O)n1 [Compound 282] | 0.133
13 | CCC[C@@H](CCO)Nc1cc(O[C@@H]2CCc3c(Cl)ccnc32)nc(N)n1 [Compound 283] | 17.180
14 | CCC[C@@H](CCO)Nc1nc(N)ncc1O[C@H]1CCc2c(Cl)ccnc21 [Compound 284] | 9.910
15 | CCC[C@@H](CCO)Nc1nc(N)ncc1OCc1cn(-c2ccccc2)nn1 [Compound 285] | 0.266
16 | CCC[C@@H](CCO)Nc1nc(N)nc(C)c1OCc1nccc2ccccc12 [Compound 286] | 0.620

Tested on: human TLR7 mutant sequence comprising a deletion in the second leucine-rich repeat
Assay: TLR7 cellular NFκB-luc reporter assay, mutant TLR7 with deletion in the second leucine-rich repeat
Assay type: cell-based
Parameters: unit not given here
Settings: lowest effective concentration
Procedure: (§1) The ability of compounds to activate human TLR7 and/or TLR8 was assessed in a cellular reporter assay using HEK293 cells transiently transfected with a TLR7 or TLR8 expression vector and NFκB-luc reporter construct. In one instance the TLR expression construct expresses the respective wild type sequence or a mutant sequence comprising a deletion in the second leucine-rich repeat of the TLR.
(§2) Briefly, HEK293 cells were grown in culture medium (DMEM supplemented with 10% FCS and 2 mM Glutamine). For transfection of cells in 10 cm dishes, cells were detached with Trypsin-EDTA, transfected with a mix of CMV-TLR7 or TLR8 plasmid (750 ng), NFκB-luc plasmid (375 ng) and a transfection reagent and incubated for 48 hours at 37° C. in a humidified 5% CO2 atmosphere. […] Thirty microliters of cells were then dispensed into each well in 384-well plates, where 10 μL of compound in 4% DMSO was already present. Following 6 hours incubation at 37° C., 5% CO2, the luciferase activity was determined by adding 15 μl of Steady Lite Plus substrate (Perkin Elmer) to each well and readout performed on a ViewLux ultraHTS microplate imager (Perkin Elmer). Dose response curves were generated from measurements performed in quadruplicates.

Row | SMILES | TLR7-dIRR2_LEC
17 | CCCCNc1nc(N)ncc1OCCN1CCOCC1 [Compound 269] | 8.280
18 | CCC[C@@H](CCO)Nc1nc(N)ncc1OCc1cccc(C(N)=O)n1 [Compound 270] | 0.131
19 | CCC[C@@H](CCO)Nc1nc(N)ncc1OCc1cccnc1 [Compound 271] | 0.511
20 | CCCC[C@@H](CCO)Nc1nc(N)ncc1OCc1cccnc1 [Compound 272] | 1.110
21 | CCCC[C@@H](CO)Nc1nc(N)ncc1OCc1cccnc1 [Compound 274] | 0.303
22 | CCCCNc1nc(N)ncc1OCCOCC(F)(F)F [Compound 276] | 0.707
23 | CCC[C@@H](CO)Nc1nc(N)ncc1OCc1cccnn1 [Compound 277] | 0.438
24 | CCCC[C@@H](CO)Nc1nc(N)ncc1OCc1cccnn1 [Compound 278] | 0.270
25 | CCC[C@@H](CCO)Nc1nc(N)ncc1OCc1cccnn1 [Compound 279] | 1.100
26 | CCCC[C@@H](CCO)Nc1nc(N)ncc1OCc1cccnn1 [Compound 280] | 1.450
27 | CCCCNc1nc(N)ncc1OCc1ccc(CO)cc1 [Compound 281] | 1.630
28 | CCCC[C@@H](CCO)Nc1nc(N)ncc1OCc1cccc(C(N)=O)n1 [Compound 282] | 0.502
29 | CCC[C@@H](CCO)Nc1cc(O[C@@H]2CCc3c(Cl)ccnc32)nc(N)n1 [Compound 283] | 8.320
30 | CCC[C@@H](CCO)Nc1nc(N)ncc1O[C@H]1CCc2c(Cl)ccnc21 [Compound 284] | 10.300
31 | CCC[C@@H](CCO)Nc1nc(N)ncc1OCc1cn(-c2ccccc2)nn1 [Compound 285] | 0.530
32 | CCC[C@@H](CCO)Nc1nc(N)nc(C)c1OCc1nccc2ccccc12 [Compound 286] | 7.660

Tested on: human TLR8 mutant sequence comprising a deletion in the second leucine-rich repeat
Assay: TLR8 cellular NFκB-luc reporter assay, mutant TLR8 with deletion in the second leucine-rich repeat
Assay type: cell-based
Parameters: unit not given here
Settings: lowest effective concentration
Procedure: as §1, §2

Row | SMILES | TLR8-dIRR2_LEC
33 | CCCCNc1nc(N)ncc1OCCN1CCOCC1 [Compound 269] | 9.750
34 | CCC[C@@H](CCO)Nc1nc(N)ncc1OCc1cccc(C(N)=O)n1 [Compound 270] | 0.006
35 | CCC[C@@H](CCO)Nc1nc(N)ncc1OCc1cccnc1 [Compound 271] | 0.088
36 | CCCC[C@@H](CCO)Nc1nc(N)ncc1OCc1cccnc1 [Compound 272] | 0.084
37 | CCCC[C@@H](CO)Nc1nc(N)ncc1OCc1cccnc1 [Compound 274] | 0.357
38 | CCCCNc1nc(N)ncc1OCCOCC(F)(F)F [Compound 276] | 0.652
39 | CCC[C@@H](CO)Nc1nc(N)ncc1OCc1cccnn1 [Compound 277] | 0.135
40 | CCCC[C@@H](CO)Nc1nc(N)ncc1OCc1cccnn1 [Compound 278] | 0.136
41 | CCC[C@@H](CCO)Nc1nc(N)ncc1OCc1cccnn1 [Compound 279] | 0.034
42 | CCCC[C@@H](CCO)Nc1nc(N)ncc1OCc1cccnn1 [Compound 280] | 0.038
43 | CCCCNc1nc(N)ncc1OCc1ccc(CO)cc1 [Compound 281] | 0.191
44 | CCCC[C@@H](CCO)Nc1nc(N)ncc1OCc1cccc(C(N)=O)n1 [Compound 282] | 0.005
45 | CCC[C@@H](CCO)Nc1cc(O[C@@H]2CCc3c(Cl)ccnc32)nc(N)n1 [Compound 283] | 4.350
46 | CCC[C@@H](CCO)Nc1nc(N)ncc1O[C@H]1CCc2c(Cl)ccnc21 [Compound 284] | 2.150
47 | CCC[C@@H](CCO)Nc1nc(N)ncc1OCc1cn(-c2ccccc2)nn1 [Compound 285] | 0.036
48 | CCC[C@@H](CCO)Nc1nc(N)nc(C)c1OCc1nccc2ccccc12 [Compound 286] | 0.128
